# Like-named read-outs stand apart in the source and are kept apart here.
# Columns and labels:
# [1] = tested on: Hs578T; test: Matrigel outgrowth assay/branching assay; assay type: cell-based; settings: Homo sapiens, Hs-578T; HS578T cell line; Table Ib; read-out: Total branching inhibition in Matrigel HS578T
# Outline: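 Invasive outgrowth into a 3 mg/ml Matrigel gel is judged from images taken after 48, 72 and 96 h of exposure to 3.125, 1.56 or 0.78 μM compound, with DMSO as control. Positive means total inhibition of branching.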
# [2] = tested on: indicated cell line; test: Wound healing migration assay (Table IV); assay type: cell-based; settings: compounds at 12.5, 6.25, 3.125 μM, 48 h-72 h
# Outline: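 Compound exposure at 12.5, 6.25 and 3.125 μM, with DMSO control, on scratch-wounded monolayers (150000 cells/24 well, overnight). Wound closure imaged by microscopy, fixed with crystal violet after 48 h or 72 h depending on cell line; IC50 is the concentration giving 50% wound size between t0 and t48/t72.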
# [3] = tested on: SF126; test: Cell vitality assay (ATP assay, CellTiter-Glo); assay type: cell-based; settings: Homo sapiens, SF-126
# Outline: (§1)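 Luminescent ATP read-out of viable cells; IC50 = concentration at which ATP falls to 50% of DMSO control. Cells seeded at 1000/well, treated 72 h with seven concentrations from 0.195 to 12.5 μM.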
# [4] = tested on: Hs578T; test: Cell vitality assay (ATP assay, CellTiter-Glo); assay type: cell-based; settings: Homo sapiens, Hs-578T; HS578T cell line, 72 h; Table Ib; read-out: IC50 ATP-Assay HS578T after 72 h
# Outline: as §1
# [5] = tested on: U118; test: Cell vitality assay (ATP assay, CellTiter-Glo); assay type: cell-based
# Outline: as §1
# [6] = Homo sapiens, A 172, A172 cells, read-out: IC50 Wound healing Assay A172
# [7] = Homo sapiens, SF-126, SF126 cells, read-out: IC50 Wound healing Assay SF126
# [8] = U118 cells, read-out: IC50 Wound healing Assay U118
# [9] = SF126, 72 h, Table IIa, read-out: IC50 ATP-Assay after 72 h SF126
# [10] = U118, 72 h, Table IIa, read-out: IC50 ATP-Assay after 72 h U118
compound,measurement,setting,value
"COc1cc2c(Oc3ccc(NS(=O)(=O)c4c(Cl)cccc4Cl)cc3F)ccnc2cc1OCCCN1CCCCC1 [Example 6, 2,6-Dichloro-N-{3-fluoro-4-[6-methoxy-7-(3-piperidin-1-yl-propoxy)-quinolin-4-yloxy]-phenyl}-benzenesulfonamide]",melting point,,206 to 208 °C
same,IC50,[1],≤ 10 µM
same,IC50,[2]; [6],≤ 12.5 µM
same,IC50,[2]; [7],≤ 12.5 µM
same,IC50,[2]; [8],≤ 12.5 µM
same,IC50,[3]; [9],≤ 12.5 µM
same,IC50,[4],≤ 12.5 µM
same,IC50,[5]; [10],≤ 12.5 µM
"COc1cc2c(Oc3ccc(NS(=O)(=O)c4c(F)cccc4F)cc3F)ccnc2cc1OCCCN1CCCCC1 [Example 11, 2,6-Difluoro-N-{3-fluoro-4-[6-methoxy-7-(3-piperidin-1-yl-propoxy)-quinolin-4-yloxy]-phenyl}-benzenesulfonamide]",melting point,,242 to 244 °C
same,IC50,[1],10 to 25 µM
same,IC50,[2]; [6],12.5 to 50 µM
same,IC50,[2]; [7],≤ 12.5 µM
same,IC50,[2]; [8],12.5 to 50 µM
same,IC50,[3]; [9],12.5 to 50 µM
same,IC50,[4],≤ 12.5 µM
same,IC50,[5]; [10],12.5 to 50 µM
"COc1cc2c(Oc3ccc(NS(=O)(=O)c4ccccc4[N+](=O)[O-])cc3F)ccnc2cc1OCCCN1CCCC(C)C1 (stereo not drawn) [Example 40, N-(3-Fluoro-4-{6-methoxy-7-[3-(3-methyl-piperidin-1-yl)-propoxy]-quinolin-4-yloxy}-phenyl)-2-nitro-benzenesulfonamide]",melting point,,136 to 138 °C
same,IC50,[1],≤ 10 µM
same,IC50,[2]; [6],≤ 12.5 µM
same,IC50,[2]; [7],≤ 12.5 µM
same,IC50,[2]; [8],≤ 12.5 µM
same,IC50,[3]; [9],≤ 12.5 µM
same,IC50,[4],≤ 12.5 µM
same,IC50,[5]; [10],12.5 to 50 µM
"COc1cc2c(Oc3ccc(NS(=O)(=O)c4ccccc4OC(F)(F)F)cc3F)ccnc2cc1OCCCN1CCCC(C)C1 (stereo not drawn) [Example 45, N-(3-Fluoro-4-{6-methoxy-7-[3-(3-methyl-piperidin-1-yl)-propoxy]-quinolin-4-yloxy}-phenyl)-2-trifluoromethoxy-benzenesulfonamide]",melting point,,128 to 130 °C
same,IC50,[1],≤ 10 µM
same,IC50,[2]; [6],≤ 12.5 µM
same,IC50,[2]; [7],≤ 12.5 µM
same,IC50,[2]; [8],≤ 12.5 µM
same,IC50,[3]; [9],≤ 12.5 µM
same,IC50,[4],≤ 12.5 µM
same,IC50,[5]; [10],≤ 12.5 µM
"COc1cc2c(Oc3ccc(NS(=O)(=O)c4ccc(F)c(F)c4F)cc3F)ccnc2cc1OCCCN1CCCC(C)C1 (stereo not drawn) [Example 49, 2,3,4-Trifluoro-N-(3-fluoro-4-{6-methoxy-7-[3-(3-methyl-piperidin-1-yl)-propoxy]-quinolin-4-yloxy}-phenyl)-benzenesulfonamide]",melting point,,134 to 136 °C
same,IC50,[1],10 to 25 µM
same,IC50,[2]; [6],≤ 12.5 µM
same,IC50,[2]; [7],≤ 12.5 µM
same,IC50,[2]; [8],≤ 12.5 µM
same,IC50,[3]; [9],≤ 12.5 µM
same,IC50,[4],≤ 12.5 µM
same,IC50,[5]; [10],≤ 12.5 µM
"COc1cc2c(Oc3ccc(NS(=O)(=O)c4c(Cl)cccc4Cl)cc3F)ccnc2cc1OCCCN1CCCC(C)C1 (stereo not drawn) [Example 51, 2,6-Dichloro-N-(3-fluoro-4-{6-methoxy-7-[3-(3-methyl-piperidin-1-yl)-propoxy]-quinolin-4-yloxy}-phenyl)-benzenesulfonamide]",melting point,,119 to 121 °C
same,IC50,[1],≤ 10 µM
same,IC50,[2]; [6],≤ 12.5 µM
same,IC50,[2]; [7],≤ 12.5 µM
same,IC50,[2]; [8],≤ 12.5 µM
same,IC50,[3]; [9],≤ 12.5 µM
same,IC50,[4],≤ 12.5 µM
same,IC50,[5]; [10],≤ 12.5 µM
"COc1cc2c(Oc3ccc(NS(=O)(=O)c4cccc(Cl)c4F)cc3F)ccnc2cc1OCCCN1CCCC(C)C1 (stereo not drawn) [Example 54, 3-Chloro-2-fluoro-N-(3-fluoro-4-{6-methoxy-7-[3-(3-methyl-piperidin-1-yl)-propoxy]-quinolin-4-yloxy}-phenyl)-benzenesulfonamide]",melting point,,125 to 127 °C
same,IC50,[1],10 to 25 µM
same,IC50,[2]; [6],≤ 12.5 µM
same,IC50,[2]; [7],≤ 12.5 µM
same,IC50,[2]; [8],≤ 12.5 µM
same,IC50,[3]; [9],12.5 to 50 µM
same,IC50,[4],≤ 12.5 µM
same,IC50,[5]; [10],≤ 12.5 µM
"COC(=O)c1sccc1S(=O)(=O)Nc1ccc(Oc2ccnc3cc(OCCCN4CCCC(C)C4)c(OC)cc23)c(F)c1 (stereo not drawn) [Example 66, 3-(3-Fluoro-4-{6-methoxy-7-[3-(3-methyl-piperidin-1-yl)-propoxy]-quinolin-4-yloxy}-phenylsulfamoyl)-thiophene-2-carboxylic acid methyl ester]",melting point,,132 to 134 °C
same,IC50,[1],10 to 25 µM
same,IC50,[2]; [6],≤ 12.5 µM
same,IC50,[2]; [7],≤ 12.5 µM
same,IC50,[2]; [8],≤ 12.5 µM
same,IC50,[3]; [9],≤ 12.5 µM
same,IC50,"[3]; cell vitality assay, SF126, Table IIb, read-out: IC50 SF126",≤ 12.5 µM
same,IC50,[4],≤ 12.5 µM
same,IC50,[5]; [10],≤ 12.5 µM
same,IC50,"[5]; cell vitality assay, U118, Table IIc, read-out: IC50 U118",≤ 12.5 µM
"COc1cc2c(Oc3ccc(NS(=O)(=O)c4ccccc4OC(F)(F)F)cc3F)ccnc2cc1OCCCN1CCCCC1 [Example 78, N-{3-Fluoro-4-[6-methoxy-7-(3-piperidin-1-yl-propoxy)-quinolin-4-yloxy]-phenyl}-2-trifluoromethoxy-benzenesulfonamide]",melting point,,156 to 158 °C
same,IC50,[1],≤ 10 µM
same,IC50,[2]; [6],≤ 12.5 µM
same,IC50,[2]; [7],≤ 12.5 µM
same,IC50,[2]; [8],≤ 12.5 µM
same,IC50,[3]; [9],≤ 12.5 µM
same,IC50,[4],≤ 12.5 µM
same,IC50,[5]; [10],≤ 12.5 µM
"COc1cc2c(Oc3ccc(NS(=O)(=O)c4c(Cl)cccc4Cl)cc3F)ccnc2cc1OCCN1CCOCC1 [Example 104, 2,6-Dichloro-N-{3-fluoro-4-[6-methoxy-7-(2-morpholin-4-yl-ethoxy)-quinolin-4-yloxy]-phenyl}-benzenesulfonamide]",melting point,,210 to 211 °C
same,IC50,[1],10 to 25 µM
same,IC50,[2]; [6],12.5 to 50 µM
same,IC50,[2]; [7],≤ 12.5 µM
same,IC50,[2]; [8],≤ 12.5 µM
same,IC50,[3]; [9],12.5 to 50 µM
same,IC50,[4],≤ 12.5 µM
same,IC50,[5]; [10],12.5 to 50 µM
"COc1cc2c(Oc3ccc(NS(=O)(=O)c4c(F)cccc4F)cc3F)ccnc2cc1OCCCN1CCN(C)CC1 [Example 110, 2,6-Difluoro-N-(3-fluoro-4-{6-methoxy-7-[3-(4-methyl-piperazin-1-yl)-propoxy]-quinolin-4-yloxy}-phenyl)-benzenesulfonamide]",IC50,[1],≤ 10 µM
same,IC50,[2]; [6],≤ 12.5 µM
same,IC50,[2]; [7],≤ 12.5 µM
same,IC50,[2]; [8],≤ 12.5 µM
same,IC50,[3]; [9],≤ 12.5 µM
same,IC50,[4],≤ 12.5 µM
same,IC50,[5]; [10],≤ 12.5 µM
"COc1cc2c(Oc3ccc(NS(=O)(=O)c4cc(F)ccc4F)cc3Cl)ccnc2cc1OCCCN1CCN(C)CC1 [Example 112, N-(3-Chloro-4-{6-methoxy-7-[3-(4-methyl-piperazin-1-yl)-propoxy]-quinolin-4-yloxy}-phenyl)-2,5-difluoro-benzenesulfonamide]",melting point,,118 to 121 °C
same,IC50,[1],≤ 10 µM
same,IC50,[2]; [6],≤ 12.5 µM
same,IC50,[2]; [7],≤ 12.5 µM
same,IC50,[2]; [8],≤ 12.5 µM
same,IC50,[3]; [9],≤ 12.5 µM
same,IC50,[4],≤ 12.5 µM
same,IC50,[5]; [10],≤ 12.5 µM
"COc1cc2c(Oc3ccc(NS(=O)(=O)c4c(Cl)cccc4Cl)cc3Cl)ccnc2cc1OCCCN1CCN(C)CC1 [Example 119, 2,6-Dichloro-N-(3-chloro-4-{6-methoxy-7-[3-(4-methyl-piperazin-1-yl)-propoxy]-quinolin-4-yloxy}-phenyl)-benzenesulfonamide]",melting point,,171 to 172 °C
same,IC50,[1],≤ 10 µM
same,IC50,[2]; [6],≤ 12.5 µM
same,IC50,[2]; [7],≤ 12.5 µM
same,IC50,[2]; [8],≤ 12.5 µM
same,IC50,[3]; [9],≤ 12.5 µM
same,IC50,[4],≤ 12.5 µM
same,IC50,[5]; [10],≤ 12.5 µM

# From US9169241B2, “Quinolinyloxyphenylsulfonamides” (Max-Planck-Gesellschaft Zur Forderung der Wissenschaften …, priority 2009, dated 2015)
